Measured values: US10654917B2, “Antibody molecules and peptide delivery systems for use in alzheimer's disease and related disorders” (TECHNOPHAGE, INVESTIGAÇĀO E DESENVOLVIMENTO EM …, priority 2015, dated 2020)
Where two headings read alike, the source gives them in different places.

Legend:
[1] = Partition coefficient (log Po/w) of radiopeptides; assay type: physicochemical
Description: Table 7 lists each peptide's name, isoelectric point (PI), charge (number of positive residues), calculated mass (in Da), and ion found; as well as the name, calculated mass, and found ion for the corresponding conjugate; and also retention times in HPLC and the partition coefficient (log Po/w). These values allowed the determination of the hydrophilic nature of peptides, where pepH1 and pepH4 were identified as the most hydrophilic peptides.

[2] = Biodistribution of technetium-labelled peptides; assay type: in vivo, CD1 mice; details: iv, 80 ug/mouse, total radioactivity, 80 μg/mouse
Description: To evaluate the capacity to cross the BBB in vivo, the selected peptides, pepH1 and pepH3, were analyzed for biodistribution in CD1 mice. The peptides were labelled with technetium at a final concentration of 8.5×10^−5 M and diluted in PBS. CD1 mice were injected (iv injection, tail vein). The mice were sacrificed by cervical dislocation after 5 and 60 minutes of incubation. The tissues of interest were dissected and washed to remove excess blood, weighed, and measured for radioactivity. Technetium radioactivity of the different peptides was measured for different organs.
Initial results are presented in Table 11, where “% I.A. refers to the “% injected activity”, that is, the amount of radioactivity measured in a given organ compared to the total originally injected.
The biodistribution studies were repeated, using higher doses of each peptide, specifically, a one hundred fold increase, as well as using PepH2 as a negative control, and allowing incubation for 2 minutes and 60 minutes. Tissue biodistribution profile in percentage of injected radiopeptide activity per gram of tissue/organ was measured and results are presented in Table 12.

Compound: CSCC[C@H](NC(=O)[C@H](Cc1ccccc1)NC(=O)[C@H](CC(C)C)NC(=O)[C@H](CCCCN)NC(=O)CCCN(CCN)CCn1nc(C)c(CC(=O)O)c1C)C(=O)N[C@@H](C)C(=O)N[C@@H](CC(C)C)C(=O)N[C@H](C(=O)N[C@@H](C)C(=O)N[C@@H](Cc1ccccc1)C(=O)N[C@@H](CC(C)C)C(=O)N[C@@H](CCCNC(=N)N)C(=O)N[C@@H](Cc1ccccc1)C(=O)N[C@@H](CC(C)C)C(=O)N[C@H](C(=O)O)[C@@H](C)O)C(C)C [^99mTc(CO)3-Pz^1-pepH2, metal not drawn]
- log Po/w of radiopeptides [1]: 0.65 ± 0.13
- tissue uptake at 2 min ([2]; CD1, blood, read-out: injected activity in Blood): 8.9 ± 0.6 %ID/g
- tissue uptake at 1 h ([2]; CD1, blood, 1 hour, read-out: injected activity in Blood): 3.8 ± 0.2 %ID/g
- tissue uptake at 2 min ([2]; CD1, bone, read-out: injected activity in Bone): 1.6 ± 0.1 %ID/g
- tissue uptake at 1 h ([2]; CD1, bone, 1 hour, read-out: injected activity in Bone): 1.4 ± 0.1 %ID/g
- tissue uptake at 2 min ([2]; CD1, brain, read-out: injected activity in Brain): 0.37 ± 0.04 %ID/g
- tissue uptake at 1 h ([2]; CD1, brain, 1 hour, read-out: injected activity in Brain): 0.2 ± 0.1 %ID/g
- tissue uptake at 2 min ([2]; CD1, heart, read-out: injected activity in Heart): 3.45 ± 0.02 %ID/g
- tissue uptake at 1 h ([2]; CD1, heart, 1 hour, read-out: injected activity in Heart): 1.2 ± 0.2 %ID/g
- dose excreted at 1 h ([2]; CD1, in vivo, 1 hour, read-out: Excretion): 12.7 ± 4.2%
- tissue uptake at 2 min ([2]; CD1, intestine, read-out: injected activity in Intestine): 0.5 ± 0.1 %ID/g
- tissue uptake at 1 h ([2]; CD1, intestine, 1 hour, read-out: injected activity in Intestine): 1.64 ± 0.07 %ID/g
- tissue uptake at 2 min ([2]; CD1, kidney, read-out: injected activity in Kidney): 5 ± 1.5 %ID/g
- tissue uptake at 1 h ([2]; CD1, kidney, 1 hour, read-out: injected activity in Kidney): 3.3 ± 0.8 %ID/g
- tissue uptake at 2 min ([2]; CD1, liver, read-out: injected activity in Liver): 16.7 ± 1.1 %ID/g
- tissue uptake at 1 h ([2]; CD1, liver, 1 hour, read-out: injected activity in Liver): 21.7 ± 0.9 %ID/g
- tissue uptake at 2 min ([2]; CD1, lung, read-out: injected activity in Lung): 126 ± 20 %ID/g
- tissue uptake at 1 h ([2]; CD1, lung, 1 hour, read-out: injected activity in Lung): 51.4 ± 4.4 %ID/g
- tissue uptake at 2 min ([2]; CD1, muscle, read-out: injected activity in Muscle): 0.61 ± 0.09 %ID/g
- tissue uptake at 1 h ([2]; CD1, muscle, 1 hour, read-out: injected activity in Muscle): 0.43 ± 0.03 %ID/g
- tissue uptake at 2 min ([2]; CD1, spleen, read-out: injected activity in Spleen): 13.6 ± 0.3 %ID/g
- tissue uptake at 1 h ([2]; CD1, spleen, 1 hour, read-out: injected activity in Spleen): 10.6 ± 0.4 %ID/g
- tissue uptake at 2 min ([2]; CD1, stomach, read-out: injected activity in Stomach): 2 ± 0.6 %ID/g
- tissue uptake at 1 h ([2]; CD1, stomach, 1 hour, read-out: injected activity in Stomach): 9.4 ± 0.2 %ID/g
